Here are results for 14 molecules from patent publication US8609674B2, “Potassium channel modulators” (AbbVie Inc., priority 2010, dated 2013).

What all share (type): cell-based
The target of assay [1] is T1, human KCNQ2 and KCNQ3 subunits (KCNQ2/3 channels) (Homo sapiens, UniProt O43525+O43526).
T1 construct: expressed in transfected cells; host or cells: HEK293
The experiment in a line: KCNQ2/3 thallium influx FLIPR assay (BTC-AM dye). Conditions: for EC50: HEK293 cells stably expressing human KCNQ2 and KCNQ3, Tl+ influx; for Emax: maximum response relative to 10 μM retigabine (=100%), read-out: KCNQ2/3 Max. %. The protocol: The following example describes the assay that may be used to identify compounds that activate KCNQ2/3 channels.
HEK293 cells stably expressing human KCNQ2 and KCNQ3 subunits were seeded in 96-well, black-walled, clear-bottomed, poly-D-lysine coated plates (BD Biosciences, Bedford, Mass.) at a density of 1×10^5 cells per well 24 hours before the assay. On the assay day, BTC-AM dye (Invitrogen, Carlsbad, Calif.) was loaded into the cells by replacing the cell culture medium with 55 μL/well of 3 μg/ml dye in Dulbecco's Phosphate Buffered Saline (DPBS) (Invitrogen). Dye loading was allowed to proceed for 2 hours at room temperature and then cells were washed twice with 50 μL/well of assay buffer (in mM: 10 HEPES pH 7.3, 5 glucose, 140 Na-gluconate, 2.5 K-gluconate, 3.6 Ca-gluconate, 2 MgSO4, 0.1 Ouabain) to remove unloaded dye. Cells were incubated in 50 μL of assay buffer before loading onto a FLIPR system (Molecular Devices, Sunnyvale, Calif.). Various concentrations of compounds to be assayed were added to the cells in 50 μL of assay buffer and incubated for 4 minutes. The fluorescence signal was initiated by adding 100 μL of assay buffer containing 6 mM TlNO3 and 10 mM K2SO4. Fluors were excited using the 488-nm line of an argon laser and emission was filtered using a 540±30 nm bandpass filter. Fluorescent signals were recorded for 3 minutes. Sums of the responses over basal responses were plotted versus concentrations of test compounds to obtain an EC50 value and the points fit with a nonlinear regression curve using GraphPad Prism software (GraphPad Software Inc., San Diego, Calif.). EC50 values were calculated from the resulting sigmoidal dose-response curves. The maximum response for each test compound was determined relative to the response produced by 10 μM retigabine. The maximum response of retigabine at 10 μM was set at 100%.

The next assay concerns the target T2, human KCNQ4 (Homo sapiens, UniProt P56696).
T2 construct: expressed in transfected cells; host or cells: HEK293
The experiment in a line: KCNQ4 thallium influx FLIPR TETRA assay. Particulars: for EC50: HEK293 cells stably expressing human KCNQ4, Tl+ influx; for Emax: maximum response relative to 10 μM retigabine (=100%), read-out: KCNQ4 Max. %. The protocol:
(§1) The following example describes the assay that may be used to identify compounds that activate KCNQ4 or KCNQ5 channels.
(§2) The assays were performed using a FLIPR^TETRA (Molecular Devices, Sunnyvale, Calif.) in 384-well format. HEK293 cells stably expressing human KCNQ4 or KCNQ5 were seeded in 384-well, black-walled, clear-bottomed, poly-D-lysine coated plates (Greiner Bio-One, Germany) at a density of 1.5×10^4 cells per well, 24 hours before the assay. On the assay day, BTC-AM dye was loaded into the cells by replacing the cell culture medium with 30 μL/well of 2.8 μM dye in DPBS. Dye loading was allowed to proceed for 2 hours at room temperature and then cells were washed once in 30 μL/well of assay buffer (in mM: 10 HEPES pH 7.3, 5 glucose, 140 Na-gluconate, 2.5 K-gluconate, 3.6 Ca-gluconate, 2 MgSO4, 0.1 Ouabain) to remove unloaded dye. Cells were incubated in 30 μL of assay buffer before loading onto a FLIPR^TETRA system. Compounds to be assayed were added to the cells as 4× of final concentration in 15 μL of assay buffer and incubated for 4 minutes at room temperature. The influx signal was initiated by adding 15 μL of assay buffer containing 4.2 mM TlNO3 and 7 mM K2SO4. Tl^+ influx signals were recorded for 3 minutes. Tl^+ influx signal was quantified as light unit changes after Tl^+ addition using the “SUM” statistic from the FLIPR^TETRA software. Sums of the responses over basal responses were plotted versus concentrations of test compounds to obtain an EC50 value and the points fit with a nonlinear regression curve using GraphPad Prism software (GraphPad Software Inc., San Diego, Calif.). EC50 values were calculated from the resulting sigmoidal dose-response curves. The maximum response for each test compound was determined relative to the response produced by 10 μM retigabine. The maximum response of retigabine at 10 μM was set at 100%.

For a further assay, the target named is T3, human KCNQ5 (Homo sapiens, UniProt Q9NR82).
T3 construct: expressed in transfected cells; host or cells: HEK293
The experiment in a line: KCNQ5 thallium influx FLIPR TETRA assay. Conditions: for EC50: HEK293 cells stably expressing human KCNQ5, Tl+ influx; for Emax: maximum response relative to 10 μM retigabine (=100%), read-out: KCNQ5 Max. %. The protocol:
as §1, §2

For `CC1(C)[C@H]2CC[C@@H](CC(=O)Nn3c(CC(F)(F)F)nc4ccccc4c3=O)[C@@H]1C2` [Example 14, 2-[(1S,2S,5S)-6,6-dimethylbicyclo[3.1.1]hept-2-yl]-N-[4-oxo-2-(2,2,2-trifluoroethyl)quinazolin-3(4H)-yl]acetamide], the EC50 in assay [1] was < 100 nM; at human KCNQ4, > 30 µM; on human KCNQ5, > 30 µM. The figures for the Emax (in assay [1]; on human KCNQ4; at human KCNQ5) were 105%, 27% and -10%, respectively.

With `CC(C)c1nc2ccccc2c(=O)n1NC(=O)C[C@@H]1[C@H](F)C[C@H]2C[C@@H]1C2(C)C` [Example 24, 2-[(1S,2S,3R,5R)-3-fluoro-6,6-dimethylbicyclo[3.1.1]hept-2-yl]-N-[4-oxo-2-(propan-2-yl)quinazolin-3(4H)-yl]acetamide], the EC50 in assay [1] was < 100 nM; on human KCNQ4, > 30 µM; on human KCNQ5, > 30 µM. The Emax in assay [1] was 25%; at human KCNQ4 it was -43%; on human KCNQ5 it was 88%.

For `CC(SC[C@@H]1CC[C@H]2C[C@@H]1C2(C)C)C(=O)Nn1c(C(C)C)nc2ccccc2c1=O` (stereo partly drawn) [Example 9, 2-({[(1S,2R,5S)-6,6-dimethylbicyclo[3.1.1]hept-2-yl]methyl}sulfanyl)-N-[4-oxo-2-(propan-2-yl)quinazolin-3(4H)-yl]propanamide], the EC50 in assay [1] is 100 to 500 nM; at human KCNQ4, > 30 µM; at human KCNQ5, > 30 µM. Further, the Emax is 49% in assay [1], 23% at human KCNQ4 and 49% at human KCNQ5.

With `CC(C)c1nc2sccc2c(=O)n1NC(=O)C[C@@H]1CC[C@H]2C[C@@H]1C2(C)C` [Example 20, 2-[(1S,2S,5S)-6,6-dimethylbicyclo[3.1.1]hept-2-yl]-N-[4-oxo-2-(propan-2-yl)thieno[2,3-d]pyrimidin-3(4H)-yl]acetamide], the EC50 in assay [1] is 100 to 500 nM; at human KCNQ4, 1 to 10 µM; on human KCNQ5, > 30 µM. Besides, the values for the Emax (in assay [1]; at human KCNQ4; on human KCNQ5) were 111%, 46% and 10%, respectively.

Consider `CC(C)c1nc2ccc(F)cc2c(=O)n1NC(=O)C[C@@H]1CC[C@H]2C[C@@H]1C2(C)C` [Example 13, 2-[(1S,2S,5S)-6,6-dimethylbicyclo[3.1.1]hept-2-yl]-N-[6-fluoro-4-oxo-2-(propan-2-yl)quinazolin-3(4H)-yl]acetamide], for which the results for the EC50 (in assay [1]; on human KCNQ4; on human KCNQ5) were < 100 nM, > 30 µM and > 30 µM, respectively. Moreover, the Emax in assay [1] was 73%; on human KCNQ4, 8%; at human KCNQ5, 21%.

For the molecule `CC(C)c1nc2ccccc2c(=O)n1NC(=O)C[C@H]1CC[C@H]2C[C@@H]1C2(C)C` [Example 21, 2-[(1S,2R,5S)-6,6-dimethylbicyclo[3.1.1]hept-2-yl]-N-[4-oxo-2-(propan-2-yl)quinazolin-3(4H)-yl]acetamide], the figures for the EC50 (in assay [1]; at human KCNQ4; at human KCNQ5) were 500 to 1000 nM, 0.5 to 1 µM and > 30 µM, respectively. Further, the Emax in assay [1] is 121%; on human KCNQ4, 25%; at human KCNQ5, 14%.

In the case of `Cc1nc2ccccc2c(=O)n1NC(=O)C[C@@H]1CC[C@H]2C[C@@H]1C2(C)C` [Example 17, 2-[(1S,2S,5S)-6,6-dimethylbicyclo[3.1.1]hept-2-yl]-N-(2-methyl-4-oxoquinazolin-3(4H)-yl)acetamide], the figures for the EC50 (in assay [1]; at human KCNQ4; on human KCNQ5) were 1000 to 10000 nM, > 30 µM and > 30 µM, respectively. Also, the results for the Emax (in assay [1]; on human KCNQ4; at human KCNQ5) were 97%, 3% and 14%, respectively.

In the case of `CC(C)c1nc2ccccc2c(=O)n1NC(=O)CSC[C@@H]1CC[C@H]2C[C@@H]1C2(C)C` [Example 12, 2-({[(1S,2R,5S)-6,6-dimethylbicyclo[3.1.1]hept-2-yl]methyl}sulfanyl)-N-[4-oxo-2-(propan-2-yl)quinazolin-3(4H)-yl]acetamide], the EC50 in assay [1] is 100 to 500 nM; on human KCNQ4 it was > 30 µM; on human KCNQ5 it was > 30 µM. The Emax is 149% in assay [1], 41% at human KCNQ4 and 136% at human KCNQ5.

In the case of `CCc1nc2sccc2c(=O)n1NC(=O)C[C@@H]1CC[C@H]2C[C@@H]1C2(C)C` [Example 6, 2-[(1S,2S,5S)-6,6-dimethylbicyclo[3.1.1]hept-2-yl]-N-(2-ethyl-4-oxothieno[2,3-d]pyrimidin-3(4H)-yl)acetamide], the EC50 in assay [1] is 1000 to 10000 nM; on human KCNQ4 it was > 30 µM; at human KCNQ5, > 30 µM. Also, the Emax in assay [1] worked out at 99%; at human KCNQ4, 5%; on human KCNQ5, 9%.

Regarding `CC(C)c1nc2ccccc2c(=O)n1NC(=O)COCC[C@@H]1CC[C@H]2C[C@@H]1C2(C)C` [Example 10, 2-{2-[(1S,2S,5S)-6,6-dimethylbicyclo[3.1.1]hept-2-yl]ethoxy}-N-[4-oxo-2-(propan-2-yl)quinazolin-3(4H)-yl]acetamide], the concentration giving a half-maximal response (EC50) in assay [1] is 1000 to 10000 nM; on human KCNQ4, > 30 µM; at human KCNQ5, > 30 µM. Further, the figures for the Emax (in assay [1]; at human KCNQ4; at human KCNQ5) were 121%, 122% and 335%, respectively.

For the molecule `CC1(C)[C@H]2CC[C@@H](CC(=O)Nn3c(C(F)(F)F)nc4ccccc4c3=O)[C@@H]1C2` [Example 7, 2-[(1S,2S,5S)-6,6-dimethylbicyclo[3.1.1]hept-2-yl]-N-[4-oxo-2-(trifluoromethyl)quinazolin-3(4H)-yl]acetamide], the EC50 is 100 to 500 nM in assay [1], > 30 µM on human KCNQ4 and > 30 µM at human KCNQ5. The Emax in assay [1] is 58%; on human KCNQ4, 6%; at human KCNQ5 it was 52%.

`CC(C)c1nc2ccccc2c(=O)n1NC(=O)CCSC[C@@H]1CC[C@H]2C[C@@H]1C2(C)C` [Example 11, 3-({[(1S,2R,5S)-6,6-dimethylbicyclo[3.1.1]hept-2-yl]methyl}sulfanyl)-N-[4-oxo-2-(propan-2-yl)quinazolin-3(4H)-yl]propanamide]: the EC50 was 100 to 500 nM in assay [1], 1 to 10 µM on human KCNQ4 and > 30 µM at human KCNQ5. The results for the Emax (in assay [1]; at human KCNQ4; on human KCNQ5) were 123%, 293% and 714%, respectively.

Take `CC1(C)[C@H]2CC[C@@H](CC(=O)Nn3c(C4CC4)nc4cc(C(F)(F)F)ccc4c3=O)[C@@H]1C2` [Example 4, N-[2-cyclopropyl-4-oxo-7-(trifluoromethyl)quinazolin-3(4H)-yl]-2-[(1S,2S,5S)-6,6-dimethylbicyclo[3.1.1]hept-2-yl]acetamide]: the EC50 in assay [1] is > 30000 nM; at human KCNQ4 it was > 30 µM; on human KCNQ5 it was > 30 µM. Moreover, the Emax was 3% in assay [1], 1% at human KCNQ4 and 12% at human KCNQ5.

In the case of `CC(C)c1nc2ccccc2c(=O)n1NC(=O)C[C@H]1C[C@H]2C[C@@H](C1F)C2(C)C` (stereo partly drawn) [Example 23, 2-[(1R,3R,5S)-2-fluoro-6,6-dimethylbicyclo[3.1.1]hept-3-yl]-N-[4-oxo-2-(propan-2-yl)quinazolin-3(4H)-yl]acetamide], the EC50 was 100 to 500 nM in assay [1], 0.1 to 0.5 µM on human KCNQ4 and 0.1 to 0.5 µM at human KCNQ5. In addition, the Emax is 155% in assay [1], 229% at human KCNQ4 and 633% at human KCNQ5.

As usually defined, the EC50 is the concentration at which the effect is half-maximal. Low values mean an effect from little substance, high ones a need for much substance.
